{"source": "ChEMBL document CHEMBL4699483", "about": "“Synthesis of functionalized derivatives of the gamma-secretase modulator BMS-932481 and identification of its major metabolite” (Bioorg Med Chem Lett, 2020)", "key": {"[1]": {"target": "Gamma-secretase", "experiment": "Modulation of gamma secretase (unknown origin) assessed as inhibition of amyloid beta (1 to 42 residues) production", "format": "protein-complex assay, Homo sapiens"}, "[2]": {"experiment": "Drug metabolism assessed as (5R,7S)-7-(4-fluorophenyl)-2-(3-methoxy-4-(3-methyl-1H-1,2,4-triazol-1-yl)phenylamino)-4-(methylamino)-6,7-dihydro-5H-cyclopenta[d]pyrimidin-5-ol metabolite formation by LC/MS analysis"}, "[3]": {"experiment": "Drug metabolism assessed as nitrile adduct formation in presence of KCN"}, "[4]": {"experiment": "Metabolic stability in rat liver microsomes assessed as parent compound remaining incubated for 30 mins", "format": "ADME, Microsome", "conditions": "read-out: Stabilty; call rule not given here"}, "[5]": {"experiment": "Metabolic stability in human liver microsomes assessed as parent compound remaining incubated for 30 mins", "format": "ADME, Microsome", "conditions": "read-out: Stabilty"}, "[6]": {"experiment": "Drug metabolism assessed as iminoquinone A formation"}, "[7]": {"target": "Cytochrome P450 3A4 (Homo sapiens, UniProt P08684)", "sequence (P08684 whole entry)": "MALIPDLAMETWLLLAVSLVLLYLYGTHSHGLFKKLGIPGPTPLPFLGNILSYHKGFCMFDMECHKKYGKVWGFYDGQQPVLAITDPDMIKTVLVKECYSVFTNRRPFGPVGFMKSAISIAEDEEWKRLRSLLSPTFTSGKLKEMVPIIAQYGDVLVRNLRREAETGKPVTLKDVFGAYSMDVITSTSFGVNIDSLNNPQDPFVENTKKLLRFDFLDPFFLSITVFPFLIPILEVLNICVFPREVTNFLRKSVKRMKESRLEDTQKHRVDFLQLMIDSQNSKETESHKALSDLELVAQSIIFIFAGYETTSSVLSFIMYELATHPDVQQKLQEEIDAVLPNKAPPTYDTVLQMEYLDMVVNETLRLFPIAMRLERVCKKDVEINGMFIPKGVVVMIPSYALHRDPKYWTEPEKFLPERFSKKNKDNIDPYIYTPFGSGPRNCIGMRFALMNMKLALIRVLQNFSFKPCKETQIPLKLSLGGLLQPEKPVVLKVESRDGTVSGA", "experiment": "Time-dependent inhibition of CYP3A4 in human liver microsomes assessed as inhibition constant by Kitz-Wilson plot analysis", "format": "ADME"}, "[8]": {"experiment": "Drug metabolism assessed as (S)-7-(4-fluorophenyl)-2-(3-methoxy-4-(3-methyl-1H-1,2,4-triazol-1-yl)phenylamino)-4-(methylamino)-6,7-dihydro-5H-cyclopenta[d]pyrimidin-5-one metabolite formation by LC/MS analysis"}, "[9]": {"experiment": "Glutathione reactivity in liver microsomes assessed as GSH-adduct formation", "format": "ADME"}}, "data": [{"smiles": "CNc1nc(Nc2ccc(-n3cnc(C)n3)c(OC)c2)nc2c1[C@H](O)C[C@H]2c1ccc(F)cc1", "values": [{"measurement": "IC50", "setting": "[1]", "value": 17, "unit": "nM"}]}, {"smiles": "CNc1nc(Nc2ccc(-n3cnc(C)n3)c(OC)c2)nc2c1C(=O)C[C@H]2c1ccc(F)cc1", "values": [{"measurement": "IC50", "setting": "[1]", "value": 14, "unit": "nM"}]}, {"smiles": "CNc1nc(Nc2ccc(-n3cnc(C)n3)c(OC)c2)nc2c1/C(=N/O)CC2c1ccc(F)cc1", "note": "(racemic)", "values": [{"measurement": "IC50", "setting": "[1]", "value": 10, "unit": "nM"}]}, {"smiles": "CNc1nc(Nc2ccc(-n3cnc(C)n3)c(OC)c2)nc2c1CC[C@@H]2c1ccc(F)cc1", "values": [{"measurement": "Drug metabolism", "setting": "[2]", "value": "Metabolite detected"}, {"measurement": "Drug metabolism", "setting": "[3]", "value": "Metabolite detected"}, {"measurement": "remaining at 0.5 h", "setting": "[4]", "value": 89, "unit": "%"}, {"measurement": "remaining at 0.5 h", "setting": "[5]", "value": 94, "unit": "%"}, {"measurement": "Drug metabolism", "setting": "[6]", "value": "Metabolite detected"}, {"measurement": "Ki", "setting": "[7]", "value": 82500, "unit": "nM"}, {"measurement": "Drug metabolism", "setting": "[8]", "value": "Metabolite detected"}, {"measurement": "Drug metabolism", "setting": "[9]", "value": "Not Active"}]}, {"smiles": "CNc1nc(Nc2ccc(-n3cnc(C)n3)c(OC)c2)nc2c1CC[C@@]2(O)c1ccc(F)cc1", "values": [{"measurement": "IC50", "setting": "[1]", "value": 2300, "unit": "nM"}]}, {"smiles": "CNc1nc(Nc2ccc(-n3cnc(C)n3)c(OC)c2)nc2c1/C(=N/O)C[C@H]2c1ccc(F)cc1", "values": [{"measurement": "IC50", "setting": "[1]", "value": 5, "unit": "nM"}]}, {"smiles": "CNc1nc(Nc2ccc(-n3cnc(C)n3)c(OC)c2)nc2c1C(C)(O)CC2c1ccc(F)cc1", "note": "(racemic)", "values": [{"measurement": "IC50", "setting": "[1]", "value": 60, "unit": "nM"}]}, {"smiles": "CNc1nc(Nc2ccc(-n3cnc(C)n3)c(OC)c2)nc2c1CC[C@H]2c1ccc(F)cc1", "values": [{"measurement": "Drug metabolism", "setting": "[2]", "value": "Metabolite detected"}, {"measurement": "Drug metabolism", "setting": "[3]", "value": "Metabolite detected"}, {"measurement": "remaining at 0.5 h", "setting": "[4]", "value": 89, "unit": "%"}, {"measurement": "remaining at 0.5 h", "setting": "[5]", "value": 94, "unit": "%"}, {"measurement": "Drug metabolism", "setting": "[6]", "value": "Metabolite detected"}, {"measurement": "Drug metabolism", "setting": "[8]", "value": "Metabolite detected"}, {"measurement": "Drug metabolism", "setting": "[9]", "value": "Not Active"}]}, {"smiles": "CNc1nc(Nc2ccc(-n3cnc(C)n3)c(OC)c2)nc2c1CC[C@]2(O)c1ccc(F)cc1", "values": [{"measurement": "IC50", "setting": "[1]", "value": 96, "unit": "nM"}]}]}
